Test results: patent US12371428B2 (Exelixis, Inc., priority 2019, dated 2025)

Assays:
[1] = target: Human KDR (residues 790-1356) (Homo sapiens (Human), UniProt P35968); assay: Human KDR kinase assay, HTRF KinEase (Example B-2); format: biochemical; conditions: protocol of Example B-2 (other compounds)
Summary of the method: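 Human KDR residues 790-1356 (0.1 ng/well) in buffer with 5 mM MgCl2, 1 mM MnCl2, 1 mM DTT, biotinylated peptide substrate, ATP at Km (4.0 μM), 3% DMSO, 10 compound concentrations; 40 min, room temperature. EDTA stop, streptavidin-XL665/Eu-TK antibody HTRF read 665/620 nm; 4-parameter IC50.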

[2] = target: Human MER (residues 528-999) (Homo sapiens (Human), UniProt Q12866); assay: Human Mer kinase assay, HTRF KinEase (Example C-2); format: biochemical; conditions: protocol of Example C-2 (other compounds)
Chain of Human MER (residues 528-999) (Q12866 528-999): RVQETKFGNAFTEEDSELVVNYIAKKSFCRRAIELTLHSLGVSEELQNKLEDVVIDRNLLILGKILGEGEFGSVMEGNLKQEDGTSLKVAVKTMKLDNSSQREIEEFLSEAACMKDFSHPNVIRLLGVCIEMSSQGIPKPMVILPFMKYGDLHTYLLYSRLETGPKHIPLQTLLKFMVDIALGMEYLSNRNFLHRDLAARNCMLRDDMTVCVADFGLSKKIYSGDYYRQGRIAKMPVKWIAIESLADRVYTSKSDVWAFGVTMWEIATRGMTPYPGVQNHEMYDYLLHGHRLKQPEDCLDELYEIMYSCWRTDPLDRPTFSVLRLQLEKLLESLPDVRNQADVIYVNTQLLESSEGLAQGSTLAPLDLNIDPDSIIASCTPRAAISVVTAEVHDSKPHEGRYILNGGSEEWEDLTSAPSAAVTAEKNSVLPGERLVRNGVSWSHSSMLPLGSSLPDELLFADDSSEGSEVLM
Summary of the method: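 Recombinant MER 528-999 (1 ng/well) in buffer with 5 mM MgCl2 and 1 mM DTT was reacted with biotinylated peptide and ATP at Km (40 μM) for 60 min at room temperature. EDTA stop with SA-XL665 and Eu3+ TK antibody, then 665/620 nm HTRF read; IC50 from 4-parameter fit.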

[3] = target: Met (phospho-Met, HGF-stimulated PC-3 prostate cancer cells) (Homo sapiens (Human), UniProt P08581); assay: Met autophosphorylation ELISA in PC-3 cells (Example F); format: cell-based; conditions: cellular activity; Met autophosphorylation ELISA in PC-3 cells; read-out: c-Met IC50
Chain of Met (phospho-Met, HGF-stimulated PC-3 prostate cancer cells) (P08581 25-1390): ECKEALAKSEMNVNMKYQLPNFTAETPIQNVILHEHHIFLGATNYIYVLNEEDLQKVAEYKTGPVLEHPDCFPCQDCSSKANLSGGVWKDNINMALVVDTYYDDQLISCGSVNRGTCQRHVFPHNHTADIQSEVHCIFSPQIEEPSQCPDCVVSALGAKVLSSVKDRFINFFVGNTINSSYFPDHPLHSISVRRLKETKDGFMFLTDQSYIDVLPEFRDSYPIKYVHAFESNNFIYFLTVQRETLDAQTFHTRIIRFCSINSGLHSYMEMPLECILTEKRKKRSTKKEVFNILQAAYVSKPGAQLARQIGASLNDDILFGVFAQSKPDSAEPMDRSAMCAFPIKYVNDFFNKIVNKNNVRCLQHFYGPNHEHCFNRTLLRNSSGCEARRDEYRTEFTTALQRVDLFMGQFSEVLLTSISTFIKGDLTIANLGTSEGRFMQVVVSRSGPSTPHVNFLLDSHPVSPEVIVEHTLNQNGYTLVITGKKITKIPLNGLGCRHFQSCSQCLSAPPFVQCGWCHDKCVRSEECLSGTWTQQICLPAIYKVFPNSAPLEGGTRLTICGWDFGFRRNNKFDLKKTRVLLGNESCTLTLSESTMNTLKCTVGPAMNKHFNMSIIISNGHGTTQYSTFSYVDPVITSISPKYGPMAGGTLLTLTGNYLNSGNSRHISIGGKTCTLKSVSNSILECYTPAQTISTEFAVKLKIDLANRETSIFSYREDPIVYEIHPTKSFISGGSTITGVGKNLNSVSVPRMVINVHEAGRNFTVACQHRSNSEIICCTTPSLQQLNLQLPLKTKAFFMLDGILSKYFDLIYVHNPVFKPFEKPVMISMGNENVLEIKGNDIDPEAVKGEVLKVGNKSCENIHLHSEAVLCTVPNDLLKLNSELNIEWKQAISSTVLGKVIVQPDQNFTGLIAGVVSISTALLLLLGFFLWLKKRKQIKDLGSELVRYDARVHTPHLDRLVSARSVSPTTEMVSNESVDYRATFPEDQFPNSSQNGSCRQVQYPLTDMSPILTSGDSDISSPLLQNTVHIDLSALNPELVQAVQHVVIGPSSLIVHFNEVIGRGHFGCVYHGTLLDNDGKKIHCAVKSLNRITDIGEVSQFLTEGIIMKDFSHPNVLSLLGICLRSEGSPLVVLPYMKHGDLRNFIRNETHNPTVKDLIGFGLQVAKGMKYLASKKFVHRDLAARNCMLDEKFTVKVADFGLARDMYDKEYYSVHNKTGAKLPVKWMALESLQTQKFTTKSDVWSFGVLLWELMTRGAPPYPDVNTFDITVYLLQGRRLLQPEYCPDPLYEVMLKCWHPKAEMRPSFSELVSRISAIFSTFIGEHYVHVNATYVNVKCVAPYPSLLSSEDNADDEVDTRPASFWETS
Summary of the method: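 Serum-starved (3 h) PC-3 cells were treated 1 h with compounds (8-point curve, 0.3% DMSO), then stimulated with 100 ng/mL human HGF for 10 min. Lysate phospho-Met (panTyr) was measured by sandwich ELISA, normalised to DMSO and reference-inhibitor controls. IC50 came from 4-parameter logistic fit.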

[4] = target: Mer (phospho-Mer, MERTK-transfected 293A cells) (Homo sapiens (Human), UniProt Q12866); assay: Mer autophosphorylation ELISA in transient transfected 293A cells (Example H); format: cell-based; conditions: cellular activity; Mer autophosphorylation ELISA in transient transfected 293A cells
Chain of Mer (phospho-Mer, MERTK-transfected 293A cells) (Q12866 21-999): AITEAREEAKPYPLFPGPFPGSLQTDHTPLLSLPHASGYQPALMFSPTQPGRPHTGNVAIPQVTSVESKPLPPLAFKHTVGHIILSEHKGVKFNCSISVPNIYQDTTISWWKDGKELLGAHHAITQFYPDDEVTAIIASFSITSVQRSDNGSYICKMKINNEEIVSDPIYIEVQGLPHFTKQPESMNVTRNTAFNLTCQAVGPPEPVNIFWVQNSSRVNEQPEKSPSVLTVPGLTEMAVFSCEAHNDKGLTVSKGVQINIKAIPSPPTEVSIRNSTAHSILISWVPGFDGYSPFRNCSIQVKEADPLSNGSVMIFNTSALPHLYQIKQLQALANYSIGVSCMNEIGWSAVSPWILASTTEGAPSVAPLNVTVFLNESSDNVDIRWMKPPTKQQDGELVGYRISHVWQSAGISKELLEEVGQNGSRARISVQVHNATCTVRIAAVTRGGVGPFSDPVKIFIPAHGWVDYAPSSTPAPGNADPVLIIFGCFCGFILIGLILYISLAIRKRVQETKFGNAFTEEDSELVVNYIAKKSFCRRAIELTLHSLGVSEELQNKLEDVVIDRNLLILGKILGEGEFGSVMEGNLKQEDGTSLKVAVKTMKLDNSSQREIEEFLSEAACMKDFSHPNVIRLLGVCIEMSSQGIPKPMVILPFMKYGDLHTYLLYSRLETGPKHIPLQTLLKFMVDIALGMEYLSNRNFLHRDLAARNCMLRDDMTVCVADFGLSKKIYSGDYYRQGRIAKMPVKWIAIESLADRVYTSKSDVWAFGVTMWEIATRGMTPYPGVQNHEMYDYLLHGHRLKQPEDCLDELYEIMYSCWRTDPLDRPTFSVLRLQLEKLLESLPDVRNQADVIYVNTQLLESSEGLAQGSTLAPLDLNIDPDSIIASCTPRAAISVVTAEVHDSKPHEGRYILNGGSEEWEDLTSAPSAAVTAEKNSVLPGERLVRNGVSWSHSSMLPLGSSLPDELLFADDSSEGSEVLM
Summary of the method: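 293A cells transiently transfected with human MERTK were treated 1 h in serum-free medium with an 8-point compound dilution (0.3% DMSO final). Lysates were assayed by phospho-Mer sandwich ELISA against a phospho-Mer standard; IC50 came from a 4-parameter logistic fit, normalised to DMSO (100%) and reference-inhibitor (0%) controls.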

Chain of Human KDR (residues 790-1356) (P35968 790-1356): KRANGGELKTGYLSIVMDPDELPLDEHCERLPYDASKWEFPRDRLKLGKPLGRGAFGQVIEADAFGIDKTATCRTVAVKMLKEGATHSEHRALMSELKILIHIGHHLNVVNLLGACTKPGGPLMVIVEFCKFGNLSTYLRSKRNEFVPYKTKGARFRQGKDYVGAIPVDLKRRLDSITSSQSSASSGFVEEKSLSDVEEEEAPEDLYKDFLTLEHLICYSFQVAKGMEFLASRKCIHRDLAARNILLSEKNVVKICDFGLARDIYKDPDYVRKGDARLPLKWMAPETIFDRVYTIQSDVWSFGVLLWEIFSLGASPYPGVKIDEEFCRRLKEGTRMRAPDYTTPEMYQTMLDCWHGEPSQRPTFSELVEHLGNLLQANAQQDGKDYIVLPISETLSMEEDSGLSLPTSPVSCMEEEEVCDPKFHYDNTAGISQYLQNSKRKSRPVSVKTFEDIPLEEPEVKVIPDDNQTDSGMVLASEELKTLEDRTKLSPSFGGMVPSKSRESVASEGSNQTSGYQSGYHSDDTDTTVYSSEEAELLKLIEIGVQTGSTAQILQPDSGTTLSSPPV

Row | SMILES | IC50 [1] [nM] | IC50 [2] [nM] | IC50 [3] [nM] | IC50 [4] [nM]
1 | COc1cnc2c(Oc3ccc(NC(=O)c4cnc(CO)c(-c5ccc(F)cc5)c4O)cc3F)ccnc2c1 [Compound 217, N-[3-Fluoro-4-[(7-methoxy-1,5-naphthyridin-4-yl)oxy]phenyl]-5-(4-fluorophenyl)-4-hydroxy-6-(hydroxymethyl)pyridine-3-carboxamide] | 100 to 300 | < 100 | < 100 | < 100
2 | COc1cnc2c(Oc3ccc(NC(=O)c4cnc(CO)c(-c5ccc(F)cc5)c4O)cc3)ccnc2c1 [Compound 218, 5-(4-Fluorophenyl)-4-hydroxy-6-(hydroxymethyl)-N-[4-[(7-methoxy-1,5-naphthyridin-4-yl)oxy]phenyl]pyridine-3-carboxamide] | 100 to 300 | < 100 | < 100 | < 100
3 | COc1cc2nccc(Oc3ccc(NC(=O)c4ccc(C)n(-c5ccc(F)cc5C)c4=O)cc3F)c2nc1OC [Compound 219, N-[4-[(6,7-Dimethoxy-1,5-naphthyridin-4-yl)oxy]-3-fluorophenyl]-1-(4-fluoro-2-methylphenyl)-6-methyl-2-oxopyridine-3-carboxamide] | < 100 | < 100 | < 100 | < 100
4 | COc1cnc2c(Oc3ccc(NC(=O)c4ccc(C)n(-c5ccc(F)cc5C)c4=O)cc3F)ccnc2c1 [Compound 220, N-[3-Fluoro-4-[(7-methoxy-1,5-naphthyridin-4-yl)oxy]phenyl]-1-(4-fluoro-2-methylphenyl)-6-methyl-2-oxopyridine-3-carboxamide] | < 100 | < 100 | < 100 | < 100
5 | COc1cc2nccc(Oc3ccc(NC(=O)c4cn(C)c(CO)c(-c5ccc(F)cc5)c4=O)cc3)c2nc1OC [Compound 221, N-[4-[(6,7-Dimethoxy-1,5-naphthyridin-4-yl)oxy]phenyl]-5-(4-fluorophenyl)-6-(hydroxymethyl)-1-methyl-4-oxopyridine-3-carboxamide] | 100 to 300 | < 100 | < 100 | < 100
6 | COc1cnc2c(Oc3ccc(NC(=O)c4cn(C)c(CO)c(-c5ccc(F)cc5)c4=O)cc3F)ccnc2c1 [Compound 222, N-[3-Fluoro-4-[(7-methoxy-1,5-naphthyridin-4-yl)oxy]phenyl]-5-(4-fluorophenyl)-6-(hydroxymethyl)-1-methyl-4-oxopyridine-3-carboxamide] | > 300 | < 100 | < 100 | < 100
7 | COc1cnc2c(Oc3ccc(NC(=O)c4cn(C)c(CO)c(-c5ccc(F)cc5)c4=O)cc3)ccnc2c1 [Compound 223, 5-(4-Fluorophenyl)-6-(hydroxymethyl)-N-[4-[(7-methoxy-1,5-naphthyridin-4-yl)oxy]phenyl]-1-methyl-4-oxopyridine-3-carboxamide] | > 300 | < 100 | < 100 | < 100
8 | COc1ccc2nccc(Oc3ccc(NC(=O)c4cn(C)c(CO)c(-c5ccc(F)cc5)c4=O)cc3F)c2n1 [Compound 224, N-[3-Fluoro-4-[(6-methoxy-1,5-naphthyridin-4-yl)oxy]phenyl]-5-(4-fluorophenyl)-6-(hydroxymethyl)-1-methyl-4-oxopyridine-3-carboxamide] | > 300 | < 100 | 100 to 300 | < 100
9 | COc1cc2nccc(Oc3ccc(NC(=O)c4ccc(C)n(-c5ccc(F)cc5C)c4=O)cc3)c2nc1OC [Compound 225, N-[4-[(6,7-Dimethoxy-1,5-naphthyridin-4-yl)oxy]phenyl]-1-(4-fluoro-2-methylphenyl)-6-methyl-2-oxopyridine-3-carboxamide] | < 100 | < 100 | < 100 | < 100
10 | COc1cnc2c(Oc3ccc(NC(=O)c4ccc(C)n(-c5ccc(F)cc5C)c4=O)cc3)ccnc2c1 [Compound 226, 1-(4-Fluoro-2-methylphenyl)-N-[4-[(7-methoxy-1,5-naphthyridin-4-yl)oxy]phenyl]-6-methyl-2-oxopyridine-3-carboxamide] | 100 to 300 | < 100 | < 100 | < 100
11 | COCCOc1nc2c(Oc3ccc(NC(=O)c4ccc(C)n(-c5ccc(F)cc5)c4=O)cc3F)ccnc2cc1OC [Compound 227, N-[3-Fluoro-4-[[7-methoxy-6-(2-methoxyethoxy)-1,5-naphthyridin-4-yl]oxy]phenyl]-1-(4-fluorophenyl)-6-methyl-2-oxopyridine-3-carboxamide] | < 100 | < 100 | < 100 | < 100
12 | COCCOc1nc2c(Oc3ccc(NC(=O)c4cn(C)c(CO)c(-c5ccc(F)cc5)c4=O)cc3F)ccnc2cc1OC [Compound 228, N-[3-Fluoro-4-[[7-methoxy-6-(2-methoxyethoxy)-1,5-naphthyridin-4-yl]oxy]phenyl]-5-(4-fluorophenyl)-6-(hydroxymethyl)-1-methyl-4-oxopyridine-3-carboxamide] | 100 to 300 | < 100 | < 100 | < 100
13 | COc1cc2nccc(Oc3ccc(NC(=O)c4ccc(C)n(-c5ccc(F)cc5)c4=O)cc3)c2nc1OC [Compound 229, N-[4-[(6,7-Dimethoxy-1,5-naphthyridin-4-yl)oxy]phenyl]-1-(4-fluorophenyl)-6-methyl-2-oxopyridine-3-carboxamide] | < 100 | < 100 | < 100 | < 100
14 | COc1ccc2nccc(Oc3ccc(NC(=O)c4n[nH]c(C)c(-c5ccc(F)cc5C)c4=O)cc3F)c2n1 [Compound 230, N-[3-Fluoro-4-[(6-methoxy-1,5-naphthyridin-4-yl)oxy]phenyl]-5-(4-fluoro-2-methylphenyl)-6-methyl-4-oxo-1H-pyridazine-3-carboxamide] | > 300 | < 100 | 100 to 300 | < 100
15 | COc1ccc2nccc(Oc3ccc(NC(=O)c4cnc(CO)c(-c5ccc(F)cc5)c4O)cc3F)c2n1 [Compound 231, N-[3-Fluoro-4-[(6-methoxy-1,5-naphthyridin-4-yl)oxy]phenyl]-5-(4-fluorophenyl)-4-hydroxy-6-(hydroxymethyl)pyridine-3-carboxamide] | 100 to 300 | < 100 | < 100 | < 100
16 | COc1ccc2nccc(Oc3ccc(NC(=O)c4cnc(C)n(-c5ccc(F)cc5)c4=O)cc3F)c2n1 [Compound 232, N-[3-Fluoro-4-[(6-methoxy-1,5-naphthyridin-4-yl)oxy]phenyl]-1-(4-fluorophenyl)-2-methyl-6-oxopyrimidine-5-carboxamide] | > 300 | < 100 | < 100 | < 100
17 | COc1ccc2nccc(Oc3ccc(NC(=O)c4c(C)nc(C)n(-c5ccc(F)cc5)c4=O)cc3F)c2n1 [Compound 233, N-[3-Fluoro-4-[(6-methoxy-1,5-naphthyridin-4-yl)oxy]phenyl]-1-(4-fluorophenyl)-2,4-dimethyl-6-oxopyrimidine-5-carboxamide] | < 100 | < 100 | 100 to 300 | < 100
18 | COc1ccc2nccc(Oc3ccc(NC(=O)c4c(C)ncn(-c5ccc(F)cc5)c4=O)cc3F)c2n1 [Compound 234, N-[3-Fluoro-4-[(6-methoxy-1,5-naphthyridin-4-yl)oxy]phenyl]-1-(4-fluorophenyl)-4-methyl-6-oxopyrimidine-5-carboxamide] | > 300 | < 100 | < 100 | < 100
19 | COc1cc2nccc(Oc3ccc(NC(=O)c4c(C)ncc(-c5ccc(F)cc5)c4O)cc3)c2nc1OC [Compound 235, N-[4-[(6,7-Dimethoxy-1,5-naphthyridin-4-yl)oxy]phenyl]-5-(4-fluorophenyl)-4-hydroxy-2-methylpyridine-3-carboxamide] | < 100 | < 100 | < 100 | < 100
20 | COc1cnc2c(Oc3ccc(NC(=O)c4c(C)ncc(-c5ccc(F)cc5)c4O)cc3)ccnc2c1 [Compound 236, 5-(4-Fluorophenyl)-4-hydroxy-N-[4-[(7-methoxy-1,5-naphthyridin-4-yl)oxy]phenyl]-2-methylpyridine-3-carboxamide] | < 100 | < 100 | < 100 | < 100
21 | COc1cc2nccc(Oc3ccc(NC(=O)c4c(C)ncc(-c5ccc(F)cc5)c4O)cc3F)c2nc1OC [Compound 237, N-[4-[(6,7-Dimethoxy-1,5-naphthyridin-4-yl)oxy]-3-fluorophenyl]-5-(4-fluorophenyl)-4-hydroxy-2-methylpyridine-3-carboxamide] | < 100 | < 100 | < 100 | < 100
